This passage reports Percent collagenase inhibition results from US4374765A, “Mammalian collagenase inhibitors” (American Home Products Corporation, priority 1981, dated 1983).

The experiment has as its system collagenase. Put plainly: collagenase inhibition, acetyl 14C collagen hydrolysis (procedure of Sellers et al.). As to conditions: 2mM inhibitor, 35° C., 5 to 18 hours, Tris-CaCl2 pH 7.4, vs control devoid of inhibitor. Type of experiment: biochemical. As to the method: The inhibitory effect of the compounds of this invention toward collagenase was determined following the procedure of Sellers et al., Biochem. J. 167 353-360 (1977) whereby the 2mM of the inhibitor being tested is incubated at 35° C. for from 5 to 18 hours (depending upon the potency of the collagenase) with collagen and collagenase (buffered with Tris®--CaCl2; pH 7.4). The collagen is acetyl ^14 C collagen. The samples are centrifuged and an aliquot removed for assay on a scintillation counter. Because native collagen forms insoluble fibrils under the test conditions, the supernatant liquid contains radioactivity as a measure of hydrolysis. The collagenase activity in the presence of 2mM inhibitor is compared to activity in a control devoid of hinibitor and the results reported as percent inhibition of collagenase activity. Each of the compounds of this invention have been established as active collagenase inhibitors by the test procedure.

The structures appear in SMILES notation. Residues, ends and D or L forms follow the SMILES beside them.

With `CC(=O)NCC(=O)N[C@@H](CS)C(=O)NCC(=O)N[C@@H](CCC(=O)O)C(=O)N[C@@H](CCC(=O)O)C(N)=O` [CH3 CO-Gly-L-Cys-Gly-L-Glu-L-Glu-NH2] (Ac-GCGEE-NH2), the Percent collagenase inhibition came to 80%.
